Reference: ChEMBL document CHEMBL1201862, “PubChem BioAssay data set” (2004)
Structures can show the parent of a compound that is named as a salt. Activity calls are given as the source filed them.

Tests used:
Genome polyprotein = Genome polyprotein (dengue virus type 2, UniProt P29990); assay: flavivirus cap methylation enzyme inhibition – biochemical, confirmation dose response, primary screen (AID 588689); type: functional
Escherichia coli = assay: microbe, parasite or virus in culture
[1] = M. tuberculosis H37Rv growth inhibitors, H37Rv strain (AID 1626); type: functional
[2] = viability of PTEN-deleted HCT116 cells – cell-based, HCT116 PTEN knockout, dose response (AID 1047); type: functional;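 note: HCT116 colon tumor cells with PTEN knocked out; cells exposed to compound for 60 hours before readout; potency for loss of cell viability measured by luminescence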
[3] = viability of HCT116 lacking mutant beta-catenin – cell-based, human colon tumor, dose response (AID 1045); type: functional;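 note: HCT116 colon tumor cells with beta catenin knocked out; cells exposed to compound for 60 hours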
Fatty acid synthase [4] = biological target: T1, Fatty acid synthase (Homo sapiens, UniProt P49327); assay: inhibition of human FAS-TE enzyme activity – biochemical, endpoint fluorescence intensity, uHTS hits, dose response (AID 624327); type: functional;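 note: fluorescence from hydrolysis of an O-methyl fluorescein acyl ester substrate by the enzyme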
Fatty acid synthase [5] = biological target: T1, Fatty acid synthase; assay: inhibition of human FAS-TE enzyme activity – biochemical, kinetic fluorescence intensity, dose response (AID 624326); type: functional;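 note: rate of fluorescence rise from hydrolysis of a fluorogenic O-methyl fluorescein ester substrate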
[6] = biological target: T2, Calpain-2 catalytic subunit (Sus scrofa, UniProt P43367); assay: m-calpain protease blockers, concentration series – biochemical, fluorogenic peptide substrate, dose response (AID 1420); type: functional
T2 sequence (P43367 whole entry): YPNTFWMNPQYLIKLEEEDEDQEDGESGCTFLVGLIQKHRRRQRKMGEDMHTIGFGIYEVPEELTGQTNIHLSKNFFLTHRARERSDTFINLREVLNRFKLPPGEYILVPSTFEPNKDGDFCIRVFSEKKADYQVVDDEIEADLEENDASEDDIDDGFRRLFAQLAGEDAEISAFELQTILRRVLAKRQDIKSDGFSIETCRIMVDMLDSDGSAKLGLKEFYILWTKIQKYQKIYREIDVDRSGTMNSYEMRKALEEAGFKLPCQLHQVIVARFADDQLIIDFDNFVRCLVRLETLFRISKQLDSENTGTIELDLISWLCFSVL

[7] = biological target: DNA dC->dU-editing enzyme APOBEC-3A (Homo sapiens, UniProt P31941); assay: Dose Response confirmation of small molecule APOBEC3A DNA Deaminase Inhibitors via a fluorescence-based single-stranded DNA deaminase assay. [Related pubchem assays (depositor defined):AID493011, AID493024]; type: functional
[8] = biological target: DNA dC->dU-editing enzyme APOBEC-3G (Homo sapiens, UniProt Q9HC16); type: functional;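 note: Dose-response counterscreen measuring inhibition of APOBEC3G DNA deaminase activity, run while confirming APOBEC3A inhibitors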
Cytochrome P450 1A2 = biological target: T3, Cytochrome P450 1A2 (Homo sapiens, UniProt P05177);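 note: PubChem cytochrome P450 panel assay, CYP1A2 panel member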
T3 sequence (P05177 whole entry): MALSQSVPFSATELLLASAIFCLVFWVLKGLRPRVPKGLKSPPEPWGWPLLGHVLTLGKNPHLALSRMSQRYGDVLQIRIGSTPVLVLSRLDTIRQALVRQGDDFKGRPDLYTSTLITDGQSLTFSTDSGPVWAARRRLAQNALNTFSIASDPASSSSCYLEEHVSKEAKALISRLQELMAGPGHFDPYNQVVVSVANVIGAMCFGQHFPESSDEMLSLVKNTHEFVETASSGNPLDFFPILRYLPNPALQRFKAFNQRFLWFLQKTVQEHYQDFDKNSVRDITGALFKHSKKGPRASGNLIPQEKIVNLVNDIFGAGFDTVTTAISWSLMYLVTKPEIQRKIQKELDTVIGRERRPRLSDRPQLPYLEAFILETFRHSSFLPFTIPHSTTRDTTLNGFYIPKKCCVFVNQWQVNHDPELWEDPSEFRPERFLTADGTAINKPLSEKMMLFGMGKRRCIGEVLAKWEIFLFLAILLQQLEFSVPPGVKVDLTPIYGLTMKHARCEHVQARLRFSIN

Cytochrome P450 2D6 = Cytochrome P450 2D6 (Homo sapiens, UniProt P10635);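 note: CYP2D6 member of a cytochrome P450 panel assay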
Cytochrome P450 2C9 = Cytochrome P450 2C9 (Homo sapiens, UniProt P11712)
[9] = biological target: T4, Carboxy-terminal domain RNA polymerase II polypeptide A small phosphatase 1 (Homo sapiens, UniProt Q9GZU7); assay: CTDSP1 inhibitors, concentration-response, biochemical, absorbance readout, ultra-high-throughput screen actives (AID 540297); type: functional
T4 sequence (Q9GZU7 whole entry): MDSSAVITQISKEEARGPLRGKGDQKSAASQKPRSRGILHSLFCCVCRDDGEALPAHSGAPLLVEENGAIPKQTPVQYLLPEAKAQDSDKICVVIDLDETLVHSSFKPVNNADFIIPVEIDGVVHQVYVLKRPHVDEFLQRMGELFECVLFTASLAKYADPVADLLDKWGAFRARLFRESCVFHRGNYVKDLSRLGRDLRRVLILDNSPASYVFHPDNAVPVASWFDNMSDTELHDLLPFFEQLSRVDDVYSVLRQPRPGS

Vero = assay: cells; type: functional; settings: Chlorocebus sabaeus

T1 sequence (P49327 whole entry): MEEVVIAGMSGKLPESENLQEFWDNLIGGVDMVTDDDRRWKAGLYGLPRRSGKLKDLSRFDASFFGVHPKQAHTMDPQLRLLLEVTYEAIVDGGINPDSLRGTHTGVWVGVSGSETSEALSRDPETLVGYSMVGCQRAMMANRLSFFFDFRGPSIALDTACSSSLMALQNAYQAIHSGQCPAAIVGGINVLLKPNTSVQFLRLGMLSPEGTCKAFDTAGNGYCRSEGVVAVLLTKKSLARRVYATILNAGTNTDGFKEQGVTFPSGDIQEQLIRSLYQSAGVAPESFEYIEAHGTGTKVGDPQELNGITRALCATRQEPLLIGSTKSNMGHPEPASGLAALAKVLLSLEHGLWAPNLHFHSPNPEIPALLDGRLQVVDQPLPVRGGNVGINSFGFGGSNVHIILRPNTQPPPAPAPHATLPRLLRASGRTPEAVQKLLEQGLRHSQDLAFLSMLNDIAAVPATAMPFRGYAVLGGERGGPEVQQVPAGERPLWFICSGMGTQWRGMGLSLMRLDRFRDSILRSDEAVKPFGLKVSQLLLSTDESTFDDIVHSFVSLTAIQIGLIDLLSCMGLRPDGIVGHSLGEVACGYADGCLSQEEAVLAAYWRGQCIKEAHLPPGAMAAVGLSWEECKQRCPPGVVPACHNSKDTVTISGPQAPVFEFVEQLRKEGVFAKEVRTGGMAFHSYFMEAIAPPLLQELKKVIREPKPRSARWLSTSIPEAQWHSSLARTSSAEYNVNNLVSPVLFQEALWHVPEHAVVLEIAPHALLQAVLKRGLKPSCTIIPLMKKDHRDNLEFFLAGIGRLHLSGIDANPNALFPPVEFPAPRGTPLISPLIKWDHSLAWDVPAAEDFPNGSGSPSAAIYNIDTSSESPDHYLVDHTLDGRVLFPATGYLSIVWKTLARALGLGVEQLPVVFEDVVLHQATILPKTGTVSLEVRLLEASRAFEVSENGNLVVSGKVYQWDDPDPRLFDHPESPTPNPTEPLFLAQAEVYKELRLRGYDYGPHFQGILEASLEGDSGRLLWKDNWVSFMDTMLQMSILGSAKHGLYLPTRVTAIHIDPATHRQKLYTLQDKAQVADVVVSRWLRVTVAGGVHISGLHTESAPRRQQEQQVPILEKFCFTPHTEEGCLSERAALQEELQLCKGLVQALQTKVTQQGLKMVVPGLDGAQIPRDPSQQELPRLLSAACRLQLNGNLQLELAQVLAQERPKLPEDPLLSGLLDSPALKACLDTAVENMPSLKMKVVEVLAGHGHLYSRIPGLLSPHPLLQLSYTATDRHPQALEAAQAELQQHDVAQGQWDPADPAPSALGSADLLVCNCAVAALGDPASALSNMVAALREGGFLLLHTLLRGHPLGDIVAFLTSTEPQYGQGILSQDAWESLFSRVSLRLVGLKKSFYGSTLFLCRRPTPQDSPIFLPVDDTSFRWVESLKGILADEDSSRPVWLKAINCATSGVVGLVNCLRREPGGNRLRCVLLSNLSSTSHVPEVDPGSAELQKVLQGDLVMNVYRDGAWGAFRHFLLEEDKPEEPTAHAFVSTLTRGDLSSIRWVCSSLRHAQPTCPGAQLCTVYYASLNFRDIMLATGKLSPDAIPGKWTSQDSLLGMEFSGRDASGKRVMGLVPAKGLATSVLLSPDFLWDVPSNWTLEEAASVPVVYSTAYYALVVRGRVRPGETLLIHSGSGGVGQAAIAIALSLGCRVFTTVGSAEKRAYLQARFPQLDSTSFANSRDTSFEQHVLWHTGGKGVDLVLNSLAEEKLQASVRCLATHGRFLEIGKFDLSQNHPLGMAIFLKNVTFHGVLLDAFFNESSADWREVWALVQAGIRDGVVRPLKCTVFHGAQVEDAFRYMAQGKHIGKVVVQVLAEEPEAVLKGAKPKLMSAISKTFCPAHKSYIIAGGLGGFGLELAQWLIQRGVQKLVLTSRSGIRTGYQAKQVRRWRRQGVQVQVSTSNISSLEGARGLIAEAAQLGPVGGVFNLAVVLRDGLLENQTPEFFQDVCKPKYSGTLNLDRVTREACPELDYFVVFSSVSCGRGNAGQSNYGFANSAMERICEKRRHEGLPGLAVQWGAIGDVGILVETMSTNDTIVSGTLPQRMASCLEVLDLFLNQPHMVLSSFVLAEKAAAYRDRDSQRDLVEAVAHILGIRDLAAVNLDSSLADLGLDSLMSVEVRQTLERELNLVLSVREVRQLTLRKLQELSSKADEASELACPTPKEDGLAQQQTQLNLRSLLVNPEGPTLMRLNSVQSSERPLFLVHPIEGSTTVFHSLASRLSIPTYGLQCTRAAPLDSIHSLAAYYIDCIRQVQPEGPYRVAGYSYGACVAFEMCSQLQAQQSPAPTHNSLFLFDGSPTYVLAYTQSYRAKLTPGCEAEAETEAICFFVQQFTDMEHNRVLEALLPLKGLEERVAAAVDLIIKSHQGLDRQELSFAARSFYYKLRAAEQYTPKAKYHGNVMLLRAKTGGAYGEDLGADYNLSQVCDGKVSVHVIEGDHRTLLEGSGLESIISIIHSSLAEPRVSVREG
Chain of Genome polyprotein (P29990 2492-3391 limits assumed): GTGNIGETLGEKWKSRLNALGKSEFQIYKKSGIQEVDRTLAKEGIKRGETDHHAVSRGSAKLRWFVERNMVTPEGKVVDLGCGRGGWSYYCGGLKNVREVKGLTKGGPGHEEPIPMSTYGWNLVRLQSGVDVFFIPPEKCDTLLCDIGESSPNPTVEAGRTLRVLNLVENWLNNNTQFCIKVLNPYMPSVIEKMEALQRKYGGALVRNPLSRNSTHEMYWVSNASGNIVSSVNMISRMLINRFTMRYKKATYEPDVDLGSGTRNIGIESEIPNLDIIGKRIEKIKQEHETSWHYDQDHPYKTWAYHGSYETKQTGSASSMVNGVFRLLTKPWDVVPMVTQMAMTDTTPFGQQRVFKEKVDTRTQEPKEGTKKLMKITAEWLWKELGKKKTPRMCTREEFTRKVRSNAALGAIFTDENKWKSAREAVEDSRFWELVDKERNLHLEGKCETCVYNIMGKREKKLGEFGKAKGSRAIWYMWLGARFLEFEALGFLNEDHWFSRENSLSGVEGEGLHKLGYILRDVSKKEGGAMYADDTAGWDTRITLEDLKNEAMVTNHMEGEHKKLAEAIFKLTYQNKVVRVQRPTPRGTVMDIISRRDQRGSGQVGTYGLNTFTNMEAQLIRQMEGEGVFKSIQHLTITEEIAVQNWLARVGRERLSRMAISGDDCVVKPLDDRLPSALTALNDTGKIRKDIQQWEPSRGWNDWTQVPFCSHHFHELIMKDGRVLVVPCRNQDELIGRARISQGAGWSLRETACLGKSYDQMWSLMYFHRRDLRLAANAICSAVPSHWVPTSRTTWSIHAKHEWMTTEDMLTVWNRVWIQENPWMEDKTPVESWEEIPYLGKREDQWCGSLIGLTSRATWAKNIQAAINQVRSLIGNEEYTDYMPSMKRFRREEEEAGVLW
Chain of DNA dC->dU-editing enzyme APOBEC-3A (P31941 whole entry): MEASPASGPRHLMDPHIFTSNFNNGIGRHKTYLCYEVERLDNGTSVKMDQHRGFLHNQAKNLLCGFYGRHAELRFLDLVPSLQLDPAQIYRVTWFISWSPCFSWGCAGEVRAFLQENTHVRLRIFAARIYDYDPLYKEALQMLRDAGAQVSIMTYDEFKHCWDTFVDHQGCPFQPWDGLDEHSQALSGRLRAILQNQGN
Chain of DNA dC->dU-editing enzyme APOBEC-3G (Q9HC16 whole entry): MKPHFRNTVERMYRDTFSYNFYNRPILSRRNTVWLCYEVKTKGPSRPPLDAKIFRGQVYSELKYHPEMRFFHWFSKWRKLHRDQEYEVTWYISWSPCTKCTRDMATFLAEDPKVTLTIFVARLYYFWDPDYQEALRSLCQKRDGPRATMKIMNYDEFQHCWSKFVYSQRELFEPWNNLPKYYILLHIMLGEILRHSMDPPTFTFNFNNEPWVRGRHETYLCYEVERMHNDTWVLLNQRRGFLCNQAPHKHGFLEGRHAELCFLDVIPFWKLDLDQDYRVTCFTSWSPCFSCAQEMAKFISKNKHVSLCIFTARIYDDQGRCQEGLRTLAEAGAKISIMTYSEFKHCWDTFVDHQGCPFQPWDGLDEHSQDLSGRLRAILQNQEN
Chain of Cytochrome P450 2D6 (P10635 whole entry): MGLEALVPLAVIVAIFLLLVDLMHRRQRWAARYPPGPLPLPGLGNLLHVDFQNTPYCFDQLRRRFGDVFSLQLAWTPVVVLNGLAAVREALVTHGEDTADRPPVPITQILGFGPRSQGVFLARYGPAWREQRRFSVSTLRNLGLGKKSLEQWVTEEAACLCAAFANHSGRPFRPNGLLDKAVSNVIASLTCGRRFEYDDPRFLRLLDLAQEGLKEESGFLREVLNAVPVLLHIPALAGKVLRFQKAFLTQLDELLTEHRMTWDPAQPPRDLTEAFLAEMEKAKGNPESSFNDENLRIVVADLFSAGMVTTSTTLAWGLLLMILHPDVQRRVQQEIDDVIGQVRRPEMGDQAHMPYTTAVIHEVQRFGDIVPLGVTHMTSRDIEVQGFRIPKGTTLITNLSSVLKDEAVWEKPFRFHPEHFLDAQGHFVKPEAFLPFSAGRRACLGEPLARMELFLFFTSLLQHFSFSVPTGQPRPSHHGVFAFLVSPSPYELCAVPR
Chain of Cytochrome P450 2C9 (P11712 whole entry, the tested form may be a part): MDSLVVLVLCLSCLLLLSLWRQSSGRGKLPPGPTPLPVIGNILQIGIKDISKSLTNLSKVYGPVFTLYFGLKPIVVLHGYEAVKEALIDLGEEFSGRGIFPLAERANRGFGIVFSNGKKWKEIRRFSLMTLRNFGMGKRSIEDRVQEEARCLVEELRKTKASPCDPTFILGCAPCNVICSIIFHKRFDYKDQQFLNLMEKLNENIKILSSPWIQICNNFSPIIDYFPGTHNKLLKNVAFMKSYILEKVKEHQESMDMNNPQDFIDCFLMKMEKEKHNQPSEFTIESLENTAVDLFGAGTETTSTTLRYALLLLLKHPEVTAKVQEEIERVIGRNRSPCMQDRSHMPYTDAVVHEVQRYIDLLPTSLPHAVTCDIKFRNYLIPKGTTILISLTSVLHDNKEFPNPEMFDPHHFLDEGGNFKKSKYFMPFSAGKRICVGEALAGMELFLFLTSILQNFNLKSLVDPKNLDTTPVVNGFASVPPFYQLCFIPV

Structure (SMILES): C#CCOc1c(Br)cc(/C=C2/C(=O)ON=C2C)cc1OCC
- IC50 (Genome polyprotein): 84.7 µM (active)

Structure (SMILES): COc1ccc(CCNCC(O)COc2c(C)cccc2C)cc1OC (stereo unspecified)
- AC50 (Escherichia coli): > 150 µM (inactive)

Structure (SMILES): CCOC(=O)CNC(=O)c1ccccc1
- AC50 (Escherichia coli): 21 µM (active)

Structure (SMILES): COc1cccc(C2C3=C(O)CC(C)(C)CC3=NC(C)=C2C(=O)Nc2nc3ccccc3s2)c1OC (stereo unspecified)
- IC50 [1]: > 100 µM (active)

Structure (SMILES): COc1cc2c3c(c1)-c1c(sn(-c4cc(OC)ccc4OC)c1=S)C(C)(C)N3C(=O)C2=O
- EC50 [2]: 42.3 µM (active)
- IC50 (Genome polyprotein): 61.9 µM (active)
- EC50 [3]: 51 µM (active)

Structure (SMILES): CC(OC(=O)c1ccc(Cl)c([N+](=O)[O-])c1)C(=O)N1CCN(Cc2ccccc2)CC1 (stereo unspecified)
- IC50 (Fatty acid synthase [4]): 6.15 µM (active)
- IC50 (Fatty acid synthase [5]): 3.36 µM (active)

Structure (SMILES): CCn1c(C)nc2cc(S(=O)(=O)C(F)(F)C(F)C(F)(F)F)ccc21 (stereo unspecified)
- IC50 [6]: 3.91 µM (active)

Structure (SMILES): CSc1ccccc1NC(=O)CN(C)CC(=O)c1[nH]c(C)c(C(C)=O)c1C
- IC50 [7]: 6.83 µM (active)
- IC50 [8]: 18.9 µM (active)

Structure (SMILES): Cc1cc(Cl)ccc1OCCCC(=O)N1CCN(C)CC1
- AC50 (Cytochrome P450 1A2): 15.8 µM (inconclusive)
- AC50 (Cytochrome P450 2D6): 14.1 µM (inconclusive)
- AC50 (Cytochrome P450 2C9): inconclusive

Structure (SMILES): CC(C)(C)C1CCC(OC(=O)C[N+]2(C)CCCC2)CC1 (stereo unspecified)
- IC50 [7]: 2.96 µM (active)
- IC50 [8]: 3.36 µM (active)

Structure (SMILES): O=[N+]([O-])c1ccc([CH+][N-]NC(=S)N[N-][CH+]c2ccc([N+](=O)[O-])cc2)cc1
- IC50 [9]: 4.17 µM (active)

Structure (SMILES): Cn1nc(C(=O)Nc2ccc(-n3cnnn3)cc2)c2ccccc2c1=O
- IC50 [9]: 25.7 µM (active)

Structure (SMILES): COCCOc1ccc(C(F)(F)F)cc1NC(=O)Cc1ccc(S(=O)(=O)N2CCOCC2)s1
- IC50 (Fatty acid synthase [4]): 6.76 µM (active)
- IC50 (Fatty acid synthase [5]): 8.23 µM (active)

Structure (SMILES): O=C1/C(=C/c2ccc(F)cc2)SC(=S)N1NS(=O)(=O)c1ccccc1
- IC50 (Genome polyprotein): 36.7 µM (active)

Structure (SMILES): C=CCOc1ccc(/C=N/O)cc1Cl
- IC50 [1]: > 100 µM (active)

Structure (SMILES): COc1ccc(/N=C/c2c(O)oc3ccccc3c2=O)cc1
- IC50 [1]: > 100 µM (active)

Structure (SMILES): CC/N=C1\S/C(=C\c2cn(C(C)=O)nc2-c2ccccc2)C(=O)N1CC
- CC50 (Vero): 24.8 µM (active)

Structure (SMILES): CCn1cc(C(=O)O)c(=O)c2cc(F)c(N3CCN(C)CC3)cc21 [PEFLOXACIN MESYLATE]
- AC50 (Escherichia coli): 1.83 µM (active)
